Results reported in patent publication US9676756B2 (PORTOLA PHARMACEUTICALS, INC., priority 2012, dated 2017).

Legend:
Format in all cases: biochemical
[1] = molecular target: T1, full length active recombinant SYK enzyme (Homo sapiens, UniProt P43405); assay: SYK tyrosine phosphorylation activity, LANCE TR-FRET kinase assay; details: 1 nM SYK, 100 μM ATP, 1 hour at room temperature
T1 construct: full length active recombinant SYK enzyme (Millipore, CA); purchased Millipore
Description: Potency of candidate molecules for inhibiting Syk tyrosine phosphorylation activity is assessed by measuring the ability of a test compound to inhibit Syk-mediated tyrosine phosphorylation of a Syk-specific substrate.
SYK tyrosine phosphorylation activity is measured using the LANCE™ Technology developed by Perkin Elmer Life and Analytical Sciences (Boston, Mass.). LANCE™ refers to homogeneous time resolved fluorometry applications using techniques such as time-resolved fluorescence resonance energy transfer assay (TR-FRET) (see generally for procedures in Perkin Elmer Application Note—How to Optimize a Tyrosine Kinase Assay Using Time Resolved Fluorescence-Based LANCE Detection, wwww.perkinelmer.com/lifesciences). The assay principle involves detection of a phosphorylated substrate using energy transfer from a phosphospecific europium-labeled antibody to streptavidin-allophycocyanin as an acceptor.
To test the ability of candidate molecules to inhibit SYK tyrosine phosphorylation activity, molecules are reconstituted in 30% DMSO and serially diluted 1:3 with the final dilution containing DMSO in the absence of the candidate molecule. The final DMSO concentration in the assay is 3%. Kinase assays are performed as a two part reaction. The first reaction is a kinase reaction that comprises a candidate molecule, full length active recombinant SYK enzyme (Millipore, CA) and biotin-labeled SYK-specific substrate biotin-[…]-OH. The second reaction involves termination of the kinase reaction and the simultaneous addition of the detection reagents-europium-labeled anti-phosphotyrosine reagent (Eu-W1024-PY100, Perkin Elmer, Boston, Mass.) and Streptavidin-Allophycocyanin detection reagent (SA-APC, Prozyme, CA). The kinase reaction is performed in a black U-bottom 96-well microtitre plate. The final reaction volume is 50 μL and contains a final concentration of 1 nM active SYK enzyme, 550 nM SYK-substrate, and 100 μM ATP diluted in a buffer containing 50 mM Tris pH 7.5, 5 mM MgCl2, and 1 mM DTT. The reaction is allowed to proceed for 1 hour at room temperature. The stop buffer contains 100 mM Tris pH 7.5, 300 mM NaCl2, 20 mM EDTA, 0.02% Brij35, and 0.5% BSA. The detection reagents are added to the reaction mixture at the following dilutions—1:500 for Eu-W1024-PY100 and 1:250 for SA-APC. The kinase reaction is terminated by the addition of 50 μL stop buffer containing the detection reagents. The detection is allowed to proceed for 1 hr at room temperature. Detection of the phosphorolated substrate in the absence and presence of inhibitors is measured in the TR-FRET instrument, Analyst HT (Molecular Probes, Sunnyvale, Calif.) and the condition for measurements are set up using CriterionHost Release 2.0 (Molecular Probes, Sunnyvale, Calif.). The settings used are a follows: excitation 360 nm, emission 665-7.5 nm, beam splitter 350 nm 50/50, flash 100 pulses, delay 60 us, integration 400 us, z-height 2 mm. Inhibition of SYK-tyrosine kinase activity is calculated as the maximum response observed in the presence of inhibitor, compared to that in the absence of inhibitor. IC50s are derived by non-linear regression analysis.

JAK1 = molecular target: T2, JAK1 (Homo sapiens, UniProt P23458); assay: JAK tyrosine phosphorylation activity, Z'-LYTE FRET kinase assay; details: catalytic domain recombinant kinase, Tyr6 peptide
T2 construct: 5 μl of catalytic domain recombinant Kinase enzyme+Tyr peptide substrate (Invitrogen, CA); purchased Invitrogen
Description: (§1) JAK and SYK tyrosine phosphorylation activity is measured using the Z'-LYTE™ Technology developed by Invitrogen Corporation (Carlsbad, Calif.). For JAK1, JAK2 and JAK3 the Z'-LYTE™ Kinase Assay Kit-Tyr6 Peptide (part number PV4122) was used. The Z'-LYTE™ biochemical assay employs a fluorescence resonance energy transfer (FRET) coupled-enzyme format and is based on the differential sensitivity of phosphorylated and non-phosphorylated peptides to proteolitic cleavage. The assay uses a synthetic peptide substrate that is labelled with a donor fluorophore (coumarin) and an acceptor fluorophore (fluorescein) that make up a FRET pair. In the primary reaction (the Kinase Reaction), the kinase transfers the γ-phosphate of ATP to a single tyrosine residue on the substrate, while the presence of a kinase inhibitor in the primary reaction suppresses phosphorylation. In the secondary reaction (the Development Reaction), a site-specific protease (the Development Reagent) is added. The development buffer quenches the Kinase Reaction, while the protease recognizes and cleaves non-phosphorylated Z'-LYTE™ peptide substrate. Cleavage disrupts FRET between the donor and acceptor fluorophores on the non-phosphorylated substrate, while uncleaved, phosphorylated substrate maintains FRET.
(§2) To test the ability of candidate molecules to inhibit JAK tyrosine phosphorylation activity, molecules are reconstituted in 100% DMSO and serially diluted 1:10 in polypropylene v-bottom microtiter plates. The candidate molecules are then diluted 1:25 into kinase buffer and 2.5 μl transferred into duplicate wells of a 384 well low volume black microtiter assay plate (Corning, USA). The final DMSO concentration in the assay is 1%. The kinase reaction contains 2.5 μl of a candidate molecule, 5 μl of catalytic domain recombinant Kinase enzyme+Tyr peptide substrate (Invitrogen, CA) and 2.5 μl ATP (Invitrogen, CA). The kinase reaction is allowed to precede for 1 hour at room temperature. The protease reaction is initiated by the addition of 5 μl Development Reagent (Invitrogen, CA). After 1 hour incubation at room temperature the fluorescence is measured using a FlexStation plate reader (Molecular Devices, Sunnyvale, Calif.). The reader settings used are as follows: Fluorescence mode, endpoint, top read, excitation 400 nm, emission 445 nm and 520 nm. Auto Cutoff 435 nm and 515 nm, PMT sensitivity high, 6 reads per well. Inhibition of JAK activity is calculated as the percent phosphorylation of substrate in the presence of inhibitor compared to the percent phosphorylation of substrate in the absence of inhibitor. IC50's were derived using Xlfit 4.3 (IDBS, UK), 4 parameter logistic model 205: Y=(A+((B−A)/(1+((C/x)^D)))).

JAK3 = molecular target: T3, JAK3 (Homo sapiens, UniProt P52333); assay: as above; details: catalytic domain recombinant kinase, Tyr6 peptide
T3 construct: 5 μl of catalytic domain recombinant Kinase enzyme+Tyr peptide substrate (Invitrogen, CA); purchased Invitrogen
Description: as §1, §2

JAK2 = molecular target: T4, JAK2 (Homo sapiens, UniProt O60674); assay: as above; details: catalytic domain recombinant kinase, Tyr6 peptide
T4 construct: 5 μl of catalytic domain recombinant Kinase enzyme+Tyr peptide substrate (Invitrogen, CA); purchased Invitrogen
Description: as §1, §2

T3 sequence (P52333 822-1111 limits assumed): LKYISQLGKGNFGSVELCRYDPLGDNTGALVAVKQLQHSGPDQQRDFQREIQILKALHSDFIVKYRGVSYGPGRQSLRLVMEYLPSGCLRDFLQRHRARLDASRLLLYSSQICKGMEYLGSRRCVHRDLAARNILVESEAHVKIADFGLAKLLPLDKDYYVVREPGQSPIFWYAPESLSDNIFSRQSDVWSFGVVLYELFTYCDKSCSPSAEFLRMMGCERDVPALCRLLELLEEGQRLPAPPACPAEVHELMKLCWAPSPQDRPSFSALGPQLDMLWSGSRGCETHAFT
T2 sequence (P23458 875-1153 limits assumed): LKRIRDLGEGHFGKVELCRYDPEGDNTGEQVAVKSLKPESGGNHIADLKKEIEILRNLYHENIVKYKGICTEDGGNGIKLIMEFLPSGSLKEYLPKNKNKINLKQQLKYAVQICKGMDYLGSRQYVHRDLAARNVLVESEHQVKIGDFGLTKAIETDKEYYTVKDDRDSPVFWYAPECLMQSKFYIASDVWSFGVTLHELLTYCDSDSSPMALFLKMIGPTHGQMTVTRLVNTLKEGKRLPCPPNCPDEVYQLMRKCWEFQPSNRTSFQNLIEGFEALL
T4 sequence (O60674 849-1124 limits assumed): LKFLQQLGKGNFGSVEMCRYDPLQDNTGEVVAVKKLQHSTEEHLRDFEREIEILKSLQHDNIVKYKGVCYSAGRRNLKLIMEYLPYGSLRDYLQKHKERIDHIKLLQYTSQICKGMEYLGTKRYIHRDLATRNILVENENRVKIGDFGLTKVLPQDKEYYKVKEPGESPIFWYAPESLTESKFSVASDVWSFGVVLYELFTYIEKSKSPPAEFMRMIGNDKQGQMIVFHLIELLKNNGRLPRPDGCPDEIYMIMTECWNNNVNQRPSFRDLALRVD

## CCS(=O)(=O)N1CCN(c2ccc(Nc3ncc(C(N)=O)c(NC4CC4)n3)cc2OC)CC1 [Compound 9, 4-(cyclopropylamino)-2-((4-(4-(ethylsulfonyl)piperazin-1-yl)-3-methoxyphenyl)amino)pyrimidine-5-carboxamide]
[1]
  IC50: +++ (0.10 uM<IC50<0.01 uM)
JAK1
  JAK1 IC50 potency class: +++ (0.10 uM<IC50<0.01 uM)
JAK3
  JAK3 IC50 potency class: ++++ (0.01 uM<IC50<0.001 uM)
JAK2
  JAK2 IC50 potency class: ++++ (0.01 uM<IC50<0.001 uM)

## COC(=O)N1CCC(c2ccc(Nc3ncc(C(N)=O)c(NC4CC4)n3)cc2)CC1 [Compound 10, methyl 4-(4-((5-carbamoyl-4-(cyclopropylamino)pyrimidin-2-yl)amino)phenyl)piperidine-1-carboxylate]
[1]
  IC50: +++ (0.10 uM<IC50<0.01 uM)
JAK1
  JAK1 IC50 potency class: +++ (0.10 uM<IC50<0.01 uM)
JAK3
  JAK3 IC50 potency class: ++++ (0.01 uM<IC50<0.001 uM)
JAK2
  JAK2 IC50 potency class: +++ (0.10 uM<IC50<0.01 uM)

## CCOC(=O)N1CCC(c2ccc(Nc3ncc(C(N)=O)c(NC4CC4)n3)cc2)CC1 [Compound 11, ethyl 4-(4-((5-carbamoyl-4-(cyclopropylamino)pyrimidin-2-yl)amino)phenyl)piperidine-1-carboxylate]
[1]
  IC50: +++ (0.10 uM<IC50<0.01 uM)
JAK1
  JAK1 IC50 potency class: ++ (1.0 uM<IC50<0.10 uM)
JAK3
  JAK3 IC50 potency class: +++ (0.10 uM<IC50<0.01 uM)
JAK2
  JAK2 IC50 potency class: +++ (0.10 uM<IC50<0.01 uM)

## CN(C)S(=O)(=O)N1CCC(c2ccc(Nc3ncc(C(N)=O)c(NC4CC4)n3)cc2)CC1 [Compound 12, 4-(cyclopropylamino)-2-((4-(1-(N,N-dimethylsulfamoyl)piperidin-4-yl)phenyl)amino)pyrimidine-5-carboxamide]
[1]
  IC50: ++ (1.0 uM<IC50<0.10 uM)
JAK1
  JAK1 IC50 potency class: +++ (0.10 uM<IC50<0.01 uM)
JAK3
  JAK3 IC50 potency class: ++++ (0.01 uM<IC50<0.001 uM)
JAK2
  JAK2 IC50 potency class: +++ (0.10 uM<IC50<0.01 uM)

## NC(=O)c1cnc(Nc2ccc(C3CCN(C(=O)N4CCCC4)CC3)cc2)nc1NC1CC1 [Compound 13, 4-(cyclopropylamino)-2-((4-(1-(pyrrolidine-1-carbonyl)piperidin-4-yl)phenyl)amino)pyrimidine-5-carboxamide]
[1]
  IC50: ++ (1.0 uM<IC50<0.10 uM)
JAK1
  JAK1 IC50 potency class: +++ (0.10 uM<IC50<0.01 uM)
JAK3
  JAK3 IC50 potency class: ++++ (0.01 uM<IC50<0.001 uM)
JAK2
  JAK2 IC50 potency class: +++ (0.10 uM<IC50<0.01 uM)

## NC(=O)c1cnc(Nc2ccc(C3CCN(C4CCOCC4)CC3)cc2)nc1NC1CC1 [Compound 14, 4-(cyclopropylamino)-2-((4-(1-(tetrahydro-2H-pyran-4-yl)piperidin-4-yl)phenyl)amino)pyrimidine-5-carboxamide]
[1]
  IC50: +++ (0.10 uM<IC50<0.01 uM)
JAK1
  JAK1 IC50 potency class: +++ (0.10 uM<IC50<0.01 uM)
JAK3
  JAK3 IC50 potency class: ++++ (0.01 uM<IC50<0.001 uM)
JAK2
  JAK2 IC50 potency class: ++++ (0.01 uM<IC50<0.001 uM)

## CCN1CCC(c2ccc(Nc3ncc(C(N)=O)c(NC4CC4)n3)cc2)CC1 [Compound 15, 4-(cyclopropylamino)-2-((4-(1-ethylpiperidin-4-yl)phenyl)amino)pyrimidine-5-carboxamide]
[1]
  IC50: +++ (0.10 uM<IC50<0.01 uM)
JAK1
  JAK1 IC50 potency class: +++ (0.10 uM<IC50<0.01 uM)
JAK3
  JAK3 IC50 potency class: ++++ (0.01 uM<IC50<0.001 uM)
JAK2
  JAK2 IC50 potency class: ++++ (0.01 uM<IC50<0.001 uM)

## NC(=O)c1cnc(Nc2ccc(C3CCN(c4ccccc4)CC3)cc2)nc1NC1CC1 [Compound 16, 4-(cyclopropylamino)-2-((4-(1-phenylpiperidin-4-yl)phenyl)amino)pyrimidine-5-carboxamide]
[1]
  IC50: ++ (1.0 uM<IC50<0.10 uM)
JAK1; read-out: JAK1 IC50 % Inhibition
  IC50: > 1 µM
JAK3
  JAK3 IC50 potency class: +++ (0.10 uM<IC50<0.01 uM)
JAK2
  JAK2 IC50 potency class: ++ (1.0 uM<IC50<0.10 uM)

## NC(=O)c1cnc(Nc2ccc(C3CCN(c4cccnc4)CC3)cc2)nc1NC1CC1 [Compound 17, 4-(cyclopropylamino)-2-((4-(1-(pyridin-3-yl)piperidin-4-yl)phenyl)amino)pyrimidine-5-carboxamide]
[1]
  IC50: ++ (1.0 uM<IC50<0.10 uM)
JAK1
  JAK1 IC50 potency class: +++ (0.10 uM<IC50<0.01 uM)
JAK3
  JAK3 IC50 potency class: +++ (0.10 uM<IC50<0.01 uM)
JAK2
  JAK2 IC50 potency class: +++ (0.10 uM<IC50<0.01 uM)

## N#CCC(=O)N1CCC(c2ccc(Nc3ncc(C(N)=O)c(NC4CC4)n3)cc2)CC1 [Compound 25, 2-((4-(1-(2-cyanoacetyl)piperidin-4-yl)phenyl)amino)-4-(cyclopropylamino)pyrimidine-5-carboxamide]
[1]
  IC50: +++ (0.10 uM<IC50<0.01 uM)
JAK1
  JAK1 IC50 potency class: +++ (0.10 uM<IC50<0.01 uM)
JAK3
  JAK3 IC50 potency class: ++++ (0.01 uM<IC50<0.001 uM)
JAK2
  JAK2 IC50 potency class: ++++ (0.01 uM<IC50<0.001 uM)

## CS(=O)(=O)N1CCN(c2ccc(Nc3ncc(C(N)=O)c(NC4CC4)n3)cc2F)CC1 [Compound 41, 4-(cyclopropylamino)-2-((3-fluoro-4-(4-(methylsulfonyl)piperazin-1-yl)phenyl)amino)pyrimidine-5-carboxamide]
[1]
  IC50: +++ (0.10 uM<IC50<0.01 uM)
JAK1
  JAK1 IC50 potency class: +++ (0.10 uM<IC50<0.01 uM)
JAK3
  JAK3 IC50 potency class: ++++ (0.01 uM<IC50<0.001 uM)
JAK2
  JAK2 IC50 potency class: ++++ (0.01 uM<IC50<0.001 uM)

## CCS(=O)(=O)N1CCN(c2ccc(Nc3ncc(C(N)=O)c(NC4CC4)n3)cc2F)CC1 [Compound 42, 4-(cyclopropylamino)-2-((4-(4-(ethylsulfonyl)piperazin-1-yl)-3-fluorophenyl)amino)pyrimidine-5-carboxamide]
[1]
  IC50: +++ (0.10 uM<IC50<0.01 uM)
JAK1
  JAK1 IC50 potency class: +++ (0.10 uM<IC50<0.01 uM)
JAK3
  JAK3 IC50 potency class: ++++ (0.01 uM<IC50<0.001 uM)
JAK2
  JAK2 IC50 potency class: ++++ (0.01 uM<IC50<0.001 uM)

## CCS(=O)(=O)N1CCN(c2ccc(Nc3ncc(C(N)=O)c(NC4CC4)n3)cc2Cl)CC1 [Compound 43, 2-((3-chloro-4-(4-(ethylsulfonyl)piperazin-1-yl)phenyl)amino)-4-(cyclopropylamino)pyrimidine-5-carboxamide]
[1]
  IC50: +++ (0.10 uM<IC50<0.01 uM)
JAK1
  JAK1 IC50 potency class: ++ (1.0 uM<IC50<0.10 uM)
JAK3
  JAK3 IC50 potency class: +++ (0.10 uM<IC50<0.01 uM)
JAK2
  JAK2 IC50 potency class: +++ (0.10 uM<IC50<0.01 uM)
